Results published in the supplement of paper PMC7695840.
Structures can show the parent of a compound that is named as a salt.

Key:
[1] = test system: Staphylococcus aureus MW2 (mecA+); test: IC50 (growth, competition assay); settings: cefoxitin: subinhibitory
Summary of the method: (§1)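 Per plate, DsRed (540/590) and GFP (485/520) readings were normalized between the medians of the single-strain controls, after which No Treatment was fixed at 0.5. These readings came from a 1:1 mix of pre-induced fluorescent S. aureus MW2 strains with and without the resistance gene, grown for 20 h at 37 °C and 90% humidity, unshaken, in LB with a daily-set subinhibitory drug dose in 1536-well plates. Per-strain IC50 meant the dose halving the No Treatment signal, or the maximal signal.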

[2] = test system: Staphylococcus aureus MW2 delta-mecA (mecA-); test: IC50 (growth, competition assay); settings: cefoxitin: subinhibitory
Summary of the method: as §1

Structure (SMILES) | IC50 ([1]; fluorescent label: DsRed) [µM] | IC50 ([1]; fluorescent label: GFP) [µM] | IC50 ([2]; fluorescent label: DsRed) [µM] | IC50 ([2]; fluorescent label: GFP) [µM]
COCC(=O)O[C@]1(CCN(C)CCCc2nc3ccccc3[nH]2)CCc2cc(F)ccc2[C@@H]1C(C)C [Mibefradil dihydrochloride] | 41.1 | 51.9 | 16.4 | 11.2
COc1cc2c(c(OC)c1OC)-c1ccc(=O)c(O)cc1[C@@H](NC(C)=O)CC2 [COLCHICEINE] | 81.3 | 84.6 | 45.5 | 51.2
CO/N=C(\C(=O)N[C@@H]1C(=O)N2C(C(=O)O)=C(COC(C)=O)CS[C@H]12)c1csc(N)n1 [CLAFORAN] | 15.6 | 15 | < 9.85 | < 9.85
Cc1c(O)c(O)cc2c1CC=C1[C@@]2(C)CC[C@@]2(C)[C@@H]3C[C@](C)(C(=O)O)CC[C@]3(C)CC[C@]12C [DIHYDROCELASTROL] | < 9.85 | < 9.85 | < 9.85 | < 9.85
CCN(CC)CCOc1ccc(C(=C(Cl)c2ccccc2)c2ccccc2)cc1 [Clomifene citrate (Serophene)] | 15 | 14.9 | < 9.85 | < 9.85
O=[N+]([O-])C=Cc1ccc2c(c1)OCO2 [MNS] | 20.5 | 27.1 | < 9.85 | < 9.85
Cc1nc2ccccc2n1Cc1ccc(Cl)cc1 [CHLORMIDAZOLE] | < 9.85 | 10.3 | < 9.85 | < 9.85
N=C(N)c1ccc(OCCCCCOc2ccc(C(=N)N)cc2)cc1 [NEBUPENT] | 16.2 | 23.6 | 14.5 | 13.7
C[C@@H](O[C@H]1OCCN(Cc2nn(P(=O)(O)O)c(=O)[nH]2)[C@H]1c1ccc(F)cc1)c1cc(C(F)(F)F)cc(C(F)(F)F)c1 [Fosaprepitant dimeglumine] | 53.4 | 49.3 | 17.2 | 31.6
NC[C@H]1O[C@H](O[C@H]2[C@H](O)[C@@H](O[C@H]3O[C@H](CO)[C@@H](O)[C@H](N)[C@H]3O)[C@H](N)C[C@@H]2N)[C@H](N)C[C@@H]1O [Tobramycin] | 16 | 27.6 | 32 | 33.8
CC/C(=C(\c1ccccc1)c1ccc(OCCN(C)C)cc1)c1ccccc1 [Tamoxifen citrate] | 14.9 | 14.9 | < 9.85 | < 9.85
CC[C@H]1OC(=O)[C@H](C)[C@@H](O[C@H]2C[C@@](C)(OC)[C@@H](O)[C@H](C)O2)[C@H](C)[C@@H](O[C@@H]2O[C@H](C)C[C@H](N(C)C)[C@H]2O)[C@](C)(O)C[C@@H](C)/C(=N\OCOCCOC)[C@H](C)[C@@H](O)[C@]1(C)O [Roxithromycin (Roxl-150)] | 4.26 | 3.99 | < 0.498 | < 0.498
CC(C)(O)CC(=O)NCCn1ccc2ncnc(Nc3ccc(Oc4cccc(C(F)(F)F)c4)c(Cl)c3)c21 [TAK-285] | 26.6 | 28.3 | < 9.85 | < 9.85
COc1cc([C@@H]2c3cc4c(cc3[C@@H](O[C@@H]3O[C@@H]5CO[C@@H](c6cccs6)O[C@H]5[C@H](O)[C@H]3O)[C@H]3COC(=O)[C@H]23)OCO4)cc(OC)c1O [VUMON] | < 9.85 | < 9.85 | < 9.85 | < 9.85
CC[C@@]1([C@H]2O[C@H]([C@H]3O[C@@](O)(CO)[C@H](C)C[C@@H]3C)C[C@H]2C)CC[C@H]([C@@]2(C)CC[C@]3(C[C@H](O)[C@@H](C)[C@@H]([C@H](C)[C@H](OC)[C@@H](C)C(=O)O)O3)O2)O1 [RUMENSIN] | < 9.85 | < 9.85 | < 9.85 | 12.5
CC[C@@H](C(=O)[C@@H](C)[C@@H](O)[C@H](C)CCc1ccc(C)c(O)c1C(=O)O)[C@H]1O[C@](CC)([C@H]2CC[C@](O)(CC)[C@H](C)O2)C[C@@H]1C [BOVOTEC] | < 9.85 | < 9.85 | < 9.85 | < 9.85
CC(C)=CCCC1(C)C=Cc2c(O)c3c(c(CC=C(C)C)c2O1)OC12C(=CCCC1C(C)(C)O[C@@]2(C/C=C(\C)C(=O)O)C(=O)O)C3=O (some centres undefined) [GARCINOLIC ACID] | < 9.85 | 14.8 | < 9.85 | < 9.85
C=C[C@](C)(O)CC[C@@H]1[C@@]2(C)CCCC(C)(C)[C@@H]2CC[C@@]1(C)O [Sclareol] | 99.3 | 65.2 | 25 | 19.7
CC[C@H](C)C[C@H](C)CCCCCCCCC(=O)N[C@H]1C[C@@H](O)[C@@H](NCCN)NC(=O)[C@@H]2[C@@H](O)CCN2C(=O)[C@H]([C@H](O)CCN)NC(=O)[C@H]([C@H](O)[C@@H](O)c2ccc(O)cc2)NC(=O)[C@@H]2C[C@@H](O)CN2C(=O)[C@H]([C@@H](C)O)NC1=O [Caspofungin acetate] | 36.7 | 42.1 | 14.4 | < 9.85

Structure (SMILES) | IC50 ([1]; fluorescent label: DsRed) [µM] | IC50 ([1]; fluorescent label: GFP) [µM] | IC50 ([2]; fluorescent label: DsRed) [µM] | IC50 ([2]; fluorescent label: GFP) [µM]
CC(=O)NC[C@H]1CN(c2ccc(N3CCOCC3)c(F)c2)C(=O)O1 [Linezolid (Zyvox)] | 2.31 | 2.83 | 0.992 | < 0.498
COc1ccc(Cc2cnc(N)nc2N)cc1OC [DIAVERIDINE] | 57.3 | 29.9 | 27.4 | 26.7
COc1cc(NS(C)(=O)=O)ccc1Nc1c2ccccc2nc2ccccc12 [Amsacrine hydrochloride] | 106 | 97.2 | < 9.85 | < 9.85
CCn1cc(C(=O)O)c(=O)c2cc3c(cc21)OCO3 [Oxolinic acid] | 18.3 | 16.1 | 15.1 | 14.6
CCc1oc2ccccc2c1C(=O)c1cc(Br)c(O)c(Br)c1 [DESURIC] | < 9.85 | < 9.85 | < 9.85 | < 9.85
CC1(C)CCC2=C(O1)c1ccccc1C(=O)C2=O [beta-Lapachone] | 12.9 | 28.3 | < 9.85 | < 9.85
CC[C@H]1OC(=O)[C@H](C)[C@@H](O[C@H]2C[C@@](C)(OC)[C@@H](O)[C@H](C)O2)[C@H](C)[C@@H](O[C@@H]2O[C@H](C)C[C@H](N(C)C)[C@H]2O)[C@](C)(O)C[C@@H](C)/C(=N\OCOCCOC)[C@H](C)[C@@H](O)[C@]1(C)O [RULIDE] | < 9.85 | < 9.85 | < 9.85 | < 9.85
O=C1NC(=O)[C@@H](c2cn3c4c(cccc24)CCC3)[C@@H]1c1c[nH]c2ccccc12 [ARQ 197 (Tivantinib)] | 107 | 112 | 32.2 | 57.3
CN1CCN(c2c(F)cc3c(=O)c(C(=O)O)cn4c3c2SCC4)CC1 [TEBRAXIN] | < 9.85 | < 9.85 | < 9.85 | < 9.85
C=CC1=C(C(=O)O)N2C(=O)[C@@H](NC(=O)/C(=N\O)c3csc(N)n3)[C@H]2SC1 [OMNICEF] | < 9.85 | < 9.85 | < 9.85 | < 9.85
CO/N=C(\C(=O)N[C@@H]1C(=O)N2C(C(=O)O)=C(CSC(=O)c3ccco3)CS[C@H]12)c1csc(N)n1 [EXCENEL] | < 9.85 | < 9.85 | < 9.85 | < 9.85
O=c1[nH]nc(Sc2ncc([N+](=O)[O-])s2)n1-c1ccc2c(c1)OCCO2 [BI 78D3] | < 9.85 | 11.9 | < 9.85 | < 9.85
O=C1OC(c2ccc(O)cc2)(c2ccc(O)cc2)c2ccccc21 [EXLAX] | 112 | 52.1 | 49.7 | 59
COC(=O)C1=C(C)NC(C)=C(C(=O)OCC(C)C)C1c1ccccc1[N+](=O)[O-] (centres undefined) [SULAR] | > 150 | > 150 | 78 | 51.8
CCCCCCCCCCCCCCCC[n+]1ccccc1 [CEPACOL] | < 9.85 | < 9.85 | < 9.85 | < 9.85
CC1COc2c(N3CCN(C)CC3)c(F)cc3c(=O)c(C(=O)O)cn1c23 (centres undefined) [FLOXIN] | < 9.85 | < 9.85 | < 9.85 | < 9.85
O=C(O)c1ccc(Nc2ncc3c(n2)-c2ccc(Cl)cc2C(c2c(F)cccc2F)=NC3)cc1 [MLN8054] | 13.7 | 24.9 | 3.89 | 2.45
O=C(O)c1cn(-c2ccc(F)cc2)c2cc(N3CCNCC3)c(F)cc2c1=O [Sarafloxacin HCl] | < 0.498 | < 0.498 | < 0.498 | < 0.498
CC(=O)Oc1c2c(c(CC=C(C)C)c3c1C(=O)C1=C[C@@H]4CC5C(C)(C)OC(C/C=C(\C)C(=O)O)(C4=O)[C@@]15O3)OC(C)(CCC=C(C)C)C=C2 (some centres undefined) [ACETYL ISOGAMBOGIC ACID] | 13.5 | 17.2 | < 9.85 | < 9.85

Structure (SMILES) | IC50 ([1]; fluorescent label: DsRed) [µM] | IC50 ([1]; fluorescent label: GFP) [µM] | IC50 ([2]; fluorescent label: DsRed) [µM] | IC50 ([2]; fluorescent label: GFP) [µM]
O=c1c2ccccc2[se]n1-c1ccccc1 [EBSELEN] | < 9.85 | < 9.85 | < 9.85 | < 9.85
O=c1[nH]c(=O)n([C@H]2C[C@H](O)[C@@H](CO)O2)cc1F [FLOXURIDINE] | < 9.85 | < 9.85 | < 9.85 | < 9.85
COC(=O)C1=C(C)NC(C)=C(C(=O)OCCCN2CCC(c3ccccc3)(c3ccccc3)CC2)[C@H]1c1cccc([N+](=O)[O-])c1 [S-(+)-Niguldipine hydrochloride] | < 9.85 | 11.4 | < 9.85 | < 9.85
CO/N=C(\C(=O)N[C@@H]1C(=O)N2C(C(=O)O)=C(CSc3nc(=O)c(O)nn3C)CS[C@H]12)c1csc(N)n1 [Ceftriaxone sodium] | 14.9 | 14.9 | < 9.85 | < 9.85
COc1c(O)cc2oc3cc(O)c(CC=C(C)C)c(O)c3c(=O)c2c1CC=C(C)C [alpha-MANGOSTIN] | < 9.85 | < 9.85 | < 9.85 | < 9.85
CC(C)(C)c1ccc(S(=O)(=O)/C=C/C#N)cc1 [Bay 11-7085] | < 9.85 | < 9.85 | < 9.85 | < 9.85
C[C@H](CCC(=O)O)[C@H]1CC[C@H]2[C@@H]3[C@H](O)C[C@@H]4C[C@H](O)CC[C@]4(C)[C@H]3CC[C@]12C [Chenodeoxycholic acid] | 54 | 91.4 | 14.8 | 7.91
COc1ccnc2[nH]cc(C(=O)C(=O)N3CCN(C(=O)c4ccccc4)C[C@H]3C)c12 | > 150 | > 150 | > 150 | > 150
COc1cc(Nc2ncc3c(n2)-c2ccc(Cl)cc2C(c2c(F)cccc2OC)=NC3)ccc1C(=O)O [MLN8237 (Alisertib)] | 12.4 | 27.5 | < 9.85 | < 9.85
CC1CC(OC(=O)C(O)c2ccccc2)CC(C)(C)C1 (centres undefined) [CYCLOSPASMOL] | 45.1 | 83.4 | 15.1 | 13.8
CN1CCN(CCCN2c3ccccc3Sc3ccc(C(F)(F)F)cc32)CC1 [Trifluoperazine dihydrochloride] | 51.1 | 52.4 | 15.7 | 16.5
COC1=C(OC)C(=O)C(CCCCCCCCCCO)=C(C)C1=O [IDEBENONE] | 22.8 | 28.8 | 15.5 | 15
O=C(Nc1cccc(C(F)(F)F)c1)Nc1cc(S(=O)(=O)NC2CC2)ccc1-c1ccsc1 [AGI-6780] | 33.7 | 36.9 | 18.5 | 11.6
C=CCc1ccccc1OCC(O)CNC1(C)CCC(C(C)(C)NC(=O)CBr)CC1 (centres undefined) [Bromoacetyl alprenolol menthane] | 14.8 | 14.2 | < 9.85 | < 9.85
Oc1c(I)cc(I)c2cccnc12 [IOQUIN] | 20.7 | 17.8 | < 9.85 | < 9.85
Cc1cc2c(C(C)C)c(O)c(O)c(C=O)c2c(O)c1-c1c(C)cc2c(C(C)C)c(O)c(O)c(C=O)c2c1O [Gossypol] | < 9.85 | < 9.85 | < 9.85 | < 9.85
CN1CCN(CCCN2c3ccccc3Sc3ccc(C(F)(F)F)cc32)CC1 [STELAZINE] | 55 | 55.8 | 18.1 | 15.9
CSc1ccc2c(c1)C(N1CCN(C)CC1)Cc1ccccc1S2 (centres undefined) [METITEPINE MESYLATE] | 56.9 | 84.8 | 30.8 | 17.8
